Experimental data published in article PMC6023543, “Resistance to Permethrin, β-cyfluthrin, and Diazinon in Florida Horn Fly Populations” (Insects, 2018).

Tests used:
Assay in all cases: Ellman assay, […] nm, head homogenate
Format in all cases: biochemical, Haematobia irritans
[1] = target: T1, acetylcholinesterase (AChE), BTU field population; settings: 0.4 mM acetylthiocholine, pH 7.8 phosphate, 25 °C, 10 min preincubation; covalent
T1 construct: gene Ace; native enzyme in homogenate of five pooled fly heads; mixed genotypes, G262A in a small part of the flies, other mutations not screened

[2] = target: T2, acetylcholinesterase (AChE), Labelle field population; settings: 0.4 mM acetylthiocholine, pH 7.8 phosphate, 25 °C, 10 min preincubation; covalent
T2 construct: gene Ace; native enzyme in homogenate of five pooled fly heads

[3] = target: T3, acetylcholinesterase (AChE), Kerrville susceptible strain; settings: 0.4 mM acetylthiocholine, pH 7.8 phosphate, 25 °C, 10 min preincubation; covalent
T3 construct: gene Ace; not purified; G262A absent in this strain

[4] = target: T4, acetylcholinesterase (AChE), Ona field population; settings: 0.4 mM acetylthiocholine, pH 7.8 phosphate, 25 °C, 10 min preincubation; covalent; stated gain
T4 construct: gene Ace; native enzyme in homogenate of five pooled fly heads; mixed genotypes, G262A in a small part of the flies, other mutations not screened

CCOP(=O)(OCC)Oc1cc(C)nc(C(C)C)n1 [diazoxon]
IC50 [1]: 6.1 nM | IC50 [2]: 9.2 nM | IC50 [3]: 8.2 nM | IC50 [4]: 20.5 nM
